Here are results for 4 molecules from paper PMC10296094, “K-Ras Binds Calmodulin-Related Centrin1 with Potential Implications for K-Ras Driven Cancer Cell Stemness” (Cancers, 2023).

Like-named read-outs stand apart in the source and are kept apart here.

For one test, the target named is CaM. The note with it: F-PMCA peptide as probe; read-out: CaM Kd (References); cited from earlier work.
Another test concerns the target T1, centrin1 (Homo sapiens, UniProt Q12798).
T1 sequence (Q12798 1-172): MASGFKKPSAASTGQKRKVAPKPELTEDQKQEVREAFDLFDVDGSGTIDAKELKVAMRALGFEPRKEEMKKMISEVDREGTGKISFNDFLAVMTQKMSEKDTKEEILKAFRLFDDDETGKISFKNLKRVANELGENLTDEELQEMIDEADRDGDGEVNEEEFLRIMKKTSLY
The test is described as follows: Fluorescence anisotropy competition: displacement of F-Sfi1 from centrin1 by CaM inhibitors. Format: binding. The procedure:
The Sfi1 peptide was derived from 670-REVAA-RESQH-NRQLL-RGALR-RWK-692 of human Sfi1 and the fluorescein was attached to the native C-terminal Lys. Sfi1 peptide titration was performed in a buffer composed of 10 mM HEPES pH 7.4, 100 mM CaCl2, and 0.005% v/v Tween 20. For binding, to a 2-fold dilution series of centrin1, 100 nM of Sfi1 peptide was added, and the reaction mix was incubated for 45 min at RT before anisotropy measurements. For measuring the IC50 of inhibitors to centrin1, to the 3-fold dilution series of inhibitors in the assay buffer, a complex of 100 nM fluorescein labelled Sfi1 peptide and 250 nM His-centrin1 was added in 20 µL volume in a 384-well plate. The fluorescence anisotropy was measured after overnight incubation at RT.
The fluorescence anisotropy was measured on a Clariostar (BMG Labtech, Ortenberg, Germany) plate reader using the fluorescence intensity signal recorded from vertical (Iv)- and horizontal (Ih)-polarised light using a fluorescence polarisation module (λexcitation 482 ± 8 nm and λemission 530 ± 20 nm). Fluorescence anisotropy was calculated from the measured fluorescence intensities according to r=Iv−GλIh/Iv+2GλIh, where r is the fluorescence anisotropy value and Iv and Ih are the fluorescence emission intensities detected with vertical and horizontal polarisation, respectively. The instrument specific correction factor G(λ) was set to 1 and not determined further. A quadratic equation as described by others was defined in Prism (GraphPad, version 9.5.1, La Jolla, CA, USA) and was used to determine the KD value of the fluorescein tagged peptides to target protein. y=Af+Ab−Af∗(Lt+KD+x−Lt+KD+x^2−4∗Lt∗x/2Lt
The IC50 value of inhibitors was determined by plotting the log concentration of inhibitor against fluorescence anisotropy values and fitting the data to log inhibitor vs. response—variable slope (four parameters) equation in Prism (GraphPad).
A general note: Fluorescence polarisation rises when a labelled molecule tumbles more slowly, as on binding a larger partner.

The next test addresses T2, K-RasG12V/centrin1 (Homo sapiens, UniProt Q12798).
T2 construct: expressed in transfected cells; host or cells: HEK293-ebna
T2 sequence (Q12798 1-172): T1 sequence (Q12798 1-172)
Briefly: Cellular BRET Rluc8-K-RasG12V/GFP2-centrin1 in HEK293-ebna cells. The conditions noted are these: for effect on BRETtop of K-RasG12V/centrin1: ophiobolin A 2.5 µM, calmidazolium 10 µM, calmirasone1 20 µM, 24 h, n = 3. Format: cell-based. For orientation: In BRET a luciferase serves as donor, and the signal depends on an acceptor being close.

Another test deals with K-Ras/centrin1. Briefly: Cellular BRET donor saturation titration Rluc8-K-Ras/GFP2-centrin1 in HEK293-ebna cells. It is filed as cell-based, human. The note with it: 10 µM mevastatin, 24 h. The method, then:
(§1) The detailed method of our BRET assay can be found in [9, 43]. Briefly, ~200,000 HEK293-ebna cells were seeded per well of a 12-well plate (cat. no. 665180, Greiner Bio-One, Vivoorde, Belgium) and grown in 1 mL of complete DMEM. The next day, ~1 µg of BRET sensor plasmids was transfected using 2.5 µL of jetPRIME. The concentration of donor plasmid was 25 ng, and that of the acceptor plasmid had increased from 25 ng to 1000 ng for titration curves. Cells were treated with inhibitors or vehicle control (DMSO at 0.2% v/v) 24 h after transfection. Cells were collected the following day in PBS and plated in white, flat bottom 96-well plates (cat. no. 236108, Nunc, Thermo Fisher Scientific). BRET measurements were performed on a Clariostar plate reader (BMG Labtech). Three channels were read. The first channel was First, GFP2-fluorescence (λexcitation 405 ± 10 nm and λemission 515 ± 10 nm), which is directly proportional to the acceptor concentration (RFU). Second, the channel was read after adding coelenterazine 400a (cat. no. C-320, GoldBio, Saint Louis, MO, USA; at 10 μM final concentration) BRET-channel (515 ± 15 nm) readings in well-mode, and then again (third) with the luminescence channel (410 ± 40 nm), and recordings were made. Signals corresponded to the BRET signal and donor (RLU) signals. […] The relative expression is calculated as the ratio of RFU/RLU and denoted as [Acceptor]/[Donor]. […]

Another test deals with CTK/centrin1. Briefly: Cellular BRET donor saturation titration Rluc8-CTK/GFP2-centrin1 in HEK293-ebna cells. It is filed as cell-based, human. The conditions noted are these: 10 µM mevastatin, 24 h. The method, then:
as §1

Another test deals with K-Ras/CaM. The test is described as follows: Cellular BRET donor saturation titration Rluc8-K-Ras/GFP2-CaM in HEK293-ebna cells. The conditions noted are these: 10 µM mevastatin, 24 h. Format: cell-based, human. The procedure:
as §1

The subject of a further test is CTK/CaM. The test is described as follows: Cellular BRET donor saturation titration Rluc8-CTK/GFP2-CaM in HEK293-ebna cells. It is filed as cell-based, human. The conditions noted are these: 10 µM mevastatin, 24 h. The procedure: as §1
[1] abbreviates: 100 nM F-Sfi1 and 250 nM His-centrin1, overnight at RT, Kd converted from IC50, read-out: Centrin1 Mean Kd (Repeat Values).

Description for K-RasG12V/centrin1: Briefly, ~200,000 HEK293-ebna cells were seeded per well of a 12-well plate (cat. no. 665180, Greiner Bio-One, Vivoorde, Belgium) and grown in 1 mL of complete DMEM. The next day, ~1 µg of BRET sensor plasmids was transfected using 2.5 µL of jetPRIME. The concentration of donor plasmid was 25 ng, and that of the acceptor plasmid had increased from 25 ng to 1000 ng for titration curves. Cells were treated with inhibitors or vehicle control (DMSO at 0.2% v/v) 24 h after transfection. Cells were collected the following day in PBS and plated in white, flat bottom 96-well plates (cat. no. 236108, Nunc, Thermo Fisher Scientific). BRET measurements were performed on a Clariostar plate reader (BMG Labtech). Three channels were read. The first channel was First, GFP2-fluorescence (λexcitation 405 ± 10 nm and λemission 515 ± 10 nm), which is directly proportional to the acceptor concentration (RFU). Second, the channel was read after adding coelenterazine 400a (cat. no. C-320, GoldBio, Saint Louis, MO, USA; at 10 μM final concentration) BRET-channel (515 ± 15 nm) readings in well-mode, and then again (third) with the luminescence channel (410 ± 40 nm), and recordings were made. Signals corresponded to the BRET signal and donor (RLU) signals. The ratio of BRET signal/RLU gave the raw BRET ratio. The final BRET ratio (BRET in plots) was obtained by subtracting the raw BRET ratio from the background raw BRET ratio of cells expressing only the donor. The relative expression is calculated as the ratio of RFU/RLU and denoted as [Acceptor]/[Donor]. […]
For dose response analysis of inhibitors, on day one, ~200,000 HEK293-ebna cells were seeded per well of a 12-well plate (cat. No. 665180, Greiner Bio-One, Vivoorde, Belgium) and grown in complete DMEM. […] The log inhibitor vs BRET ratio was plotted, and the data were fitted by a log (inhibitor) vs. response variable slope (four parameters) equation of Prism, and the IC50 values were calculated.

As for `CC(C)=C[C@H]1C[C@H](C)[C@]2(CC[C@]3(C)C[C@H]4[C@H](C(=O)C[C@@]4(C)O)/C(C=O)=C\C[C@H]32)O1` [ophiobolin A], the figures for the Kd at CaM and at centrin1 were 3.5 µM and 49 µM, respectively. Moreover, the “effect on BRETtop of K-RasG12V/centrin1” value on K-RasG12V/centrin1 is “lowered”.

As to `CC[C@H](C)C(=O)O[C@H]1CCC=C2C=C[C@H](C)[C@H](CC[C@@H]3C[C@@H](O)CC(=O)O3)[C@H]21` [mevastatin], in the test with K-Ras/centrin1, the “effect on BRET-levels of K-Ras with centrin1” value is “did not significantly affect”. Besides, in the test with K-Ras/centrin1 (n = 3), the “BRETtop (K-Ras + centrin1)” value is listed as 0.078 ± 0.005. Further, in the test with CTK/centrin1, the “effect on BRET of CTK with centrin1” value is recorded as “did not decrease”. Besides, in the test on CTK/centrin1 (n = 3), the “BRETtop (CTK + centrin1)” value is given as 0.061 ± 0.003. The “effect on BRET-levels of K-Ras with CaM” value in the test on K-Ras/CaM was “did not significantly affect”. The “BRETtop (K-Ras + CaM)” value in the test on K-Ras/CaM (n = 3) is on record as 0.097 ± 0.005. Further, in the test with CTK/CaM, the “effect on BRET of CTK with CaM” value is recorded as “did not decrease”. Also, in the test with CTK/CaM (n = 3), the “BRETtop (CTK + CaM)” value stood at 0.063 ± 0.004.

On to `Clc1ccc(C(c2ccc(Cl)cc2)n2cc[n+](CC(OCc3ccc(Cl)cc3Cl)c3ccc(Cl)cc3Cl)c2)cc1` (centres unmarked) [calmidazolium, calmidazolium chloride], for which the Kd (commonly the concentration at which binding is half-saturated) was 0.0135 µM at CaM and 1.6 µM on centrin1 (setting [1]). In addition, the IC50 on K-RasG12V/centrin1 (HEK293-ebna, donor/acceptor plasmid ratio 1/19, 24 h treatment, n = 2, read-out: IC50, inhibition of K-RasG12V/centrin1 BRET interaction) was 10.44 ± 0.05 µM. At K-RasG12V/centrin1, the “effect on BRETtop of K-RasG12V/centrin1” value was “lowered”.

For the molecule `NCCCCCCNS(=O)(=O)c1cccc2c(Cl)cccc12` [W-7], the values for the dissociation constant (Kd) on CaM and at centrin1 (setting [1]) were 1.47 µM and 18.2 µM, respectively.
